# Laboratory results published in patent publication US11274118B2 (priority 2012, dated 2022).
# Legend:
# physchem [1] = details: kinetic from dmso stock
# physchem [2] = details: buffer, pH 7
# Primary cortical cells = test: Reduction of neuronal cell death after a glutamate challenge (MTT / LDH release); type: cell-based; details: for inhibition at 5 µM: 24 h, read-out: reduction in cell death at a 5 μM dose; for dose at maximum efficacy: glutamate challenge, primary cortical cells; for Emax: read-out: maximum efficacy, reduction in cell death
# [3] = test system: cerebral edema in rats following bilateral cortical contusion; details: rat, in vivo, iv, 4 mg/kg
# [4] = rat, in vivo, iv, 4 mg/kg
Structure (SMILES),"solubility at 90 min (physchem [1]; pH 4, aqueous buffer)","solubility at 90 min (physchem [1]; pH 7, aqueous buffer)",half-life (physchem [2]),inhibition at 5 µM (Primary cortical cells),dose at maximum efficacy (Primary cortical cells),Emax (Primary cortical cells),reduction of brain edema [3],concentrations of circulating drug [4]
"C/C(=N\OC(=O)[C@@H]1CCCNC1)[C@H]1CC[C@H]2[C@@H]3CCC4=CC(=O)CC[C@]4(C)[C@H]3CC[C@]12C.Cl [Compound 21, (8S,9S,10R,13S,14S,17S)-10,13-dimethyl-17-((E)-1-((R)-piperidine-3-carbonyloxyimino)ethyl)-6,7,8,9,10,11,12,13,14,15,16,17-dodecahydro-1H-cyclopenta[a]phenanthren-3 (2H)-one hydrochloride]",> 500 µM,428 µM,–,–,–,–,–,–
"C/C(=N\OC(=O)CN1CCN(C)CC1)[C@H]1CC[C@H]2[C@@H]3CCC4=CC(=O)CC[C@]4(C)[C@H]3CC[C@]12C [Compound 13, (8S,9S,10R,13S,14S,17S)-10,13-Dimethyl-17-((E)-1-(2-(4-methylpiperazin-1-yl)acetoxyimino)ethyl)-6,7,8,9,10,11,12,13,14,15,16,17-dodecahydro-1H-cyclopenta[a]phenanthren-3 (2H)-one]",153 µM,145 µM,~72 h,–,–,–,–,–
"CC(=O)O/N=C(\C)[C@H]1CC[C@H]2[C@@H]3CCC4=CC(=O)CC[C@]4(C)[C@H]3CC[C@]12C [Compound 6, (8 S,9S,10R,13S,14S,17S)-17-((E)-1-(acetoxyimino)ethyl)-10,13-dimethyl-6,7,8,9,10,11,12,13,14,15,16,17-dodecahydro-1H-cyclopenta[a]phenanthren-3(2H)-one]",180 µM,100 µM,–,–,–,–,–,–
"C/C(=N\OC(=O)[C@@H]1CCCN1)[C@H]1CC[C@H]2[C@@H]3CCC4=CC(=O)CC[C@]4(C)[C@H]3CC[C@]12C.Cl [Compound 8, (8S,9S,10R,13S,14S,17S)-10,13-Dimethyl-17-((E)-1-((S)-pyrrolidine-2-carbonyloxyimino)ethyl)-6,7,8,9,10,11,12,13,14,15,16,17-dodecahydro-1H-cyclopenta[a]phenanthren-3(2H)-one Hydrochloride]",395 µM,34 µM,–,21%,10 µM,33%,–,–
"CC(=O)[C@H]1CC[C@H]2[C@@H]3CCC4=C/C(=N/O)CC[C@]4(C)[C@H]3CC[C@]12C [Compound 2, 1-((8S,9S,10R,13S,14S,17S,E)-3-(Hydroxyimino)-10,13-dimethyl-2,3,6,7,8,9,10,11,12,13,14,15,16,17-tetradecahydro-1H-cyclopenta[a]phenanthren-17-yl)ethanone]",< 45 µM,< 45 µM,> 240 h,21%,5 µM,21%,60%,micromolar concentrations
C/C(=N\OC(=O)c1cccnc1)[C@H]1CC[C@H]2[C@@H]3CCC4=CC(=O)CC[C@]4(C)[C@H]3CC[C@]12C [Compound 14],< 35 µM,< 35 µM,–,20%,5 µM,20%,–,–
"C/C(=N\OC(=O)[C@H]1CCCNC1)[C@H]1CC[C@H]2[C@@H]3CCC4=CC(=O)CC[C@]4(C)[C@H]3CC[C@]12C.Cl [Compound 22, (8S,9S,10R,13S,14S,17S)-10,13-Dimethyl-17-((E)-1-((S)-piperidine-3-carbonyloxyimino)ethyl)-6,7,8,9,10,11,12,13,14,15,16,17-dodecahydro-1H-cyclopenta[a]phenanthren-3(2H)-one hydrochloride]",314 µM,314 µM,–,–,–,–,–,–
"C/C(=N\OC(=O)c1ccc(CN)cc1)[C@H]1CC[C@H]2[C@@H]3CCC4=CC(=O)CC[C@]4(C)[C@H]3CC[C@]12C.Cl [Compound 16, (8S,9S,10R,13S,14S,17S)-17-((E)-1-(4-(aminomethyl)benzoyloxyimino)ethyl)-10,13-dimethyl-6,7,8,9,10,11,12,13,14,15,16,17-dodecahydro-1H-cyclopenta[a]phenanthren-3 (2H)-one]",< 30 µM,< 30 µM,–,–,–,–,–,–
"CO/N=C(\C)[C@H]1CC[C@H]2[C@@H]3CCC4=CC(=O)CC[C@]4(C)[C@H]3CC[C@]12C [Compound 4, (8S,9S,10R,13S,14S,17S)-17-((E)-1-(Methoxyimino)ethyl)-10,13-dimethyl-6,7,8,9,10,11,12,13,14,15,16,17-dodecahydro-1H-cyclopenta[a]phenanthren-3(2H)-one]",< 25 µM,< 25 µM,> 240 h,–,–,–,–,–
"C/C(=N\OC(=O)C1CCNCC1)[C@H]1CC[C@H]2[C@@H]3CCC4=CC(=O)CC[C@]4(C)[C@H]3CC[C@]12C.Cl [Compound 18, (8S,9S,10R,13S,14S,17S)-10,13-Dimethyl-17-((E)-1-(piperidine-4-carbonyloxyimino)ethyl)-6,7,8,9,10,11,12,13,14,15,16,17-dodecahydro-1H-cyclopenta[a]phenanthren-3(2H)-one hydrochloride]",247 µM,247 µM,–,4%,10 µM,24%,–,–
"C/C(=N\OC(=O)[C@@H]1CCC[N+]1(C)C)[C@H]1CC[C@H]2[C@@H]3CCC4=CC(=O)CC[C@]4(C)[C@H]3CC[C@]12C.[I-] [Compound 9, (8S,9S,10R,13S,14S,17S)-10,13-Dimethyl-17-((E)-1-((S)-1,1-Dimethylpyrrolidine-2-carbonyloxyimino)ethyl)-6,7,8,9,10,11,12,13,14,15,16,17-dodecahydro-1H-cyclopenta[a]phenanthren-3(2H)-one iodide]",345 µM,51 µM,0.833 h,–,–,–,–,–
"C/C(=N\OC(=O)c1ccc[n+](C)c1)[C@H]1CC[C@H]2[C@@H]3CCC4=CC(=O)CC[C@]4(C)[C@H]3CC[C@]12C.[I-] [Compound 15, 3-(((E)-1-((8S,9S,10R,13S,14S,17S)-10,13-Dimethyl-3-oxo-2,3,6,7,8,9,10,11,12,13,14,15,16,17-tetradecahydro-1H-cyclopenta[a]phenanthren-17-yl)ethylideneaminooxy)carbonyl)-1-methylpyridinium iodide]",349 µM,212 µM,–,0%,1 µM,14%,–,–
"C/C(=N\OC(=O)CN1CCOCC1)[C@H]1CC[C@H]2[C@@H]3CCC4=CC(=O)CC[C@]4(C)[C@H]3CC[C@]12C [Compound 12, (8S,9S,10R,13S,14S,17S)-10,13-Dimethyl-17-((E)-1-(2-morpholinoacetoxyimino)ethyl)-6,7,8,9,10,11,12,13,14,15,16,17-dodecahydro-1H-cyclopenta[a]phenanthren-3(2H)-one]",215 µM,215 µM,–,–,–,–,–,–
"C/C(=N\OC(=O)C1CCN(C)CC1)[C@H]1CC[C@H]2[C@@H]3CCC4=CC(=O)CC[C@]4(C)[C@H]3CC[C@]12C [Compound 19, (8S,9S,10R,13S,14S,17S)-10,13-Dimethyl-17-((E)-1-(1-methylpiperidine-4-carbonyloxyimino)ethyl)-6,7,8,9,10,11,12,13,14,15,16,17-dodecahydro-1H-cyclopenta[a]phenanthren-3(2H)-one]",> 660 µM,108 µM,–,–,–,–,–,–
"C/C(=N\OC(=O)C[N+](C)(C)C)[C@H]1CC[C@H]2[C@@H]3CCC4=CC(=O)CC[C@]4(C)[C@H]3CC[C@]12C.[I-] [Compound 11, (8S,9S,10R,13S,14S,17S)-17-((E)-1-(2-(triimethylamino)acetoxyimino)ethyl)-10,13-dimethyl-6,7,8,9,10,11,12,13,14,15,16,17-dodecahydro-1H-cyclopenta[a]phenanthren-3(2H)-one Iodide]",> 540 µM,45 µM,–,–,–,–,–,–
"C/C(=N\OC(=O)c1ccc(CN2CCN(C)CC2)cc1)[C@H]1CC[C@H]2[C@@H]3CCC4=CC(=O)CC[C@]4(C)[C@H]3CC[C@]12C [Compound 17, (8S,9S,10R,13S,14S,17S)-10,13-dimethyl-17-((E)-1-(4-((4-methylpiperazin-1-yl)methyl)benzoyloxyimino)ethyl)-6,7,8,9,10,11,12,13,14,15,16,17-dodecahydro-1H-cyclopenta[a]phenanthren-3(2H)-one]",< 30 µM,< 30 µM,–,–,–,–,–,–
"C/C(=N\OCCN1CCOCC1)[C@H]1CC[C@H]2[C@@H]3CCC4=CC(=O)CC[C@]4(C)[C@H]3CC[C@]12C [Compound 5, (8S,9S,10R,13S,14S,17S)-10,13-Dimethyl-17-((E)-1-(2-morpholinoethoxyimino)ethyl)-6,7,8,9,10,11,12,13,14,15,16,17-dodecahydro-1H-cyclopenta[a]phenanthren-3 (2H)-one]",> 450 µM,108 µM,> 240 h,26%,5 µM,26%,–,–
"C/C(=N\OC(=O)C1CC[N+](C)(C)CC1)[C@H]1CC[C@H]2[C@@H]3CCC4=CC(=O)CC[C@]4(C)[C@H]3CC[C@]12C.[I-] [Compound 20, (8S,9S,10R,13S,14S,17S)-10,13-Dimethyl-17-((E)-1-(1,1-dimethylpiperidine-4-carbonyloxyimino)ethyl)-6,7,8,9,10,11,12,13,14,15,16,17-dodecahydro-1H-cyclopenta[a]phenanthren-3(2H)-one iodide]",> 500 µM,> 500 µM,–,0%,5 µM,0%,–,–
